The results in this text go back to patent US20180179198A1, “TRICYCLIC MODULATORS OF TNF SIGNALING” (AbbVie Inc., priority 2015, published 2018).

SMILES strings stand for the structures. Like-named read-outs stand apart in the source and are kept apart here.

This assay deals with TNFα trimer (Homo sapiens, UniProt P01375). In words: TNFα FP Competitive Binding Assay. The essentials: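 Fluorescence polarization displacement: 20 nM TNFα trimer (60 nM protein) with 1 nM fluorescein-labelled bis-isoquinoline probe in HEPES/NaCl/EDTA/Triton X-100 buffer. 12-point 1:3 compound series, top final 338 μM (3.4% DMSO) or 100 μM (2.0% DMSO); 18-24 h at 37 °C, then 1 h rt before background-subtracted mP read; variable-slope curve fit.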

[1] abbreviates: fluorescence polarization competition, 20 nM TNFα trimer, 1 nM OregonGreen488 probe, read-out: TNF IC50 (TNFα FP binding assay IC50).
Where [2] appears, read: TNFα FP competitive binding assay, class symbols A/B/C, read-out: TNF IC50.

TNFα trimer, sequence (P01375 77-233 limits assumed): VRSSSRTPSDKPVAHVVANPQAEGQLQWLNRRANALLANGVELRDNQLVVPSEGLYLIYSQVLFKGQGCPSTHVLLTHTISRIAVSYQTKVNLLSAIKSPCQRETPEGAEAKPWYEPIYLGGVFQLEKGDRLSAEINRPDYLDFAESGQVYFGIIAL

On to `CC(C)(O)c1ncc(-c2ccc3nc4n(c3n2)C(c2ccccc2)CCC4)cn1` (stereo not shown) [O.2], for which the IC50 (usually the concentration that gives 50% inhibition) under setting [1] is less than 1 µM.
Same read-out and setting: the figure for `O=C1CN(c2ncc(-c3ccc4nc5n(c4n3)C(c3ccccc3)CCC5)cn2)CCN1` (stereo not shown) [O.3] is less than 1 µM.
As to `OC1CCN(c2ncc(-c3ccc4nc5n(c4n3)C(c3ccccc3)CCC5)cn2)CC1` (stereo not shown) [O.4], the IC50 under setting [1] was less than 1 µM.
For the compound `c1ccc(C2CCc3nc4cnc(-c5cnc(N6CCOCC6)nc5)cc4n32)cc1` (stereo not shown) [P.1], the IC50 under setting [1] is 1 to 10 µM.
Still for that read-out and setting: the figure for `CC(C)(O)c1ncc(-c2cc3c(cn2)nc2n3C(c3ccccc3)CC2)cn1` (stereo not shown) [P.2] is 1 to 10 µM.
The same measure, in the same setting: the figure for `O=C1CN(c2ncc(-c3cc4c(cn3)nc3n4C(c4ccccc4)CC3)cn2)CCN1` (stereo not shown) [P.3] is 10 to 100 µM; for `O=C1CN(c2ncc(-c3cnc4nc5n(c4c3)C(c3ccccc3)CCC5)cn2)CCN1` (stereo not shown) [Q.1] it is 10 to 100 µM; for `COc1ccccc1C1CCCc2nc3ccc(-c4ccc(OCC(=O)O)nc4)cn3c21` (stereo not shown) [R.1] it is less than 1 µM.
Consider `COc1ccccc1C1CCCCc2nc3ccc(-c4cnc(N5CCOCC5)nc4)cn3c21` (stereo not shown) [S.1], for which the half-inhibitory concentration (IC50) under setting [2] is less than 1 µM.
On the same count and under the same terms, under `CCOC(=O)CNc1ncc(-c2ccc3nc4c(n3c2)C(c2ccccc2OC)CCCC4)cn1` (stereo not shown) [S.2] stands 1 to 10 µM; under `COc1ccccc1C1CCCCc2nc3ccc(-c4cnc(NCC(=O)O)nc4)cn3c21` (stereo not shown) [S.3], 1 to 10 µM; under `COc1ccccc1C1CCCCc2nc3ccc(-c4cnc(C(C)(C)O)nc4)cn3c21` (stereo not shown) [S.4], less than 1 µM.
On the same count and under the same terms, the figure for `COc1ncc(-c2ccc3nc4n(c3c2)C(c2ccccc2)COC4)cc1F` (stereo not shown) [T.1] is 1 to 10 µM; for `CS(=O)(=O)c1ccc(-c2ccc3nc4n(c3c2)C(c2ccccc2)COC4)cn1` (stereo not shown) [T.2] it is 1 to 10 µM.
For `c1ccc(C2COCc3nc4ccc(-c5cnc6nonc6c5)cc4n32)cc1` (stereo not shown) [T.3], the IC50 under setting [2] is 1 to 10 µM.
In the case of `FC(F)(F)COc1ccc(-c2ccc3nc4n(c3c2)C(c2ccccc2)COC4)cn1` (stereo not shown) [T.4], the half-inhibitory concentration (IC50) under setting [2] lay within 1 to 10 µM.
In the case of `CC(C)Oc1ccc(-c2ccc3nc4n(c3c2)C(c2ccccc2)COC4)cn1` (stereo not shown) [T.5], the half-inhibitory concentration (IC50) under setting [2] was 1 to 10 µM.
The same measure, in the same setting: under `CC(=O)Nc1ccc(-c2ccc3nc4n(c3c2)C(c2ccccc2)COC4)cn1` (stereo not shown) [T.6] stands 10 to 100 µM; under `COc1ncc(-c2ccc3nc4n(c3c2)C(c2ccccc2)COC4)cc1C` (stereo not shown) [T.7], 1 to 10 µM; under `Cc1nccn1-c1cnc(-c2ccc3nc4n(c3c2)C(c2ccccc2)COC4)cn1` (stereo not shown) [T.8], 1 to 10 µM.
Still for that read-out and setting: the figure for `c1ccc(C2COCc3nc4ccc(-c5cnc(-n6ccnc6)cn5)cc4n32)cc1` (stereo not shown) [T.9] is 1 to 10 µM; for `c1ccc(C2COCc3nc4ccc(-c5ccc(N6CCNCC6)nc5)cc4n32)cc1` (stereo not shown) [T.10] it is 1 to 10 µM; for `CN1CCOc2cc(-c3ccc4nc5n(c4c3)C(c3ccccc3)COC5)cnc21` (stereo not shown) [T.11] it is 1 to 10 µM.
For `Cc1cc(-c2ccc3nc4n(c3c2)C(c2ccccc2)COC4)cnc1N1CCOCC1` (stereo not shown) [T.12], the concentration for half-maximal inhibition (IC50) under setting [2] fell in the range of 1 to 10 µM.
In the case of `CC(=O)N1CCN(c2ccc(-c3ccc4nc5n(c4c3)C(c3ccccc3)COC5)cn2)CC1` (stereo not shown) [T.13], under setting [2], the half-inhibitory concentration (IC50) lay within 1 to 10 µM.
Still for that read-out and setting: the figure for `CN(C)c1ncc(-c2ccc3nc4n(c3c2)C(c2ccccc2)COC4)cn1` (stereo not shown) [T.14] is 1 to 10 µM; for `N#Cc1ncc(-c2ccc3nc4n(c3c2)C(c2ccccc2)COC4)cn1` (stereo not shown) [T.15] it is 1 to 10 µM.
Regarding `N#Cc1ccc(-c2ccc3nc4n(c3c2)C(c2ccccc2)COC4)cn1` (stereo not shown) [T.16], under setting [2], the IC50 lay within 1 to 10 µM.
The same measure, in the same setting: under `c1ccc(C2COCc3nc4ccc(-c5cnc(NC6CCCC6)nc5)cc4n32)cc1` (stereo not shown) [T.17] stands 1 to 10 µM.
For the compound `Cc1ccc(-c2ccc3nc4n(c3c2)C(c2ccccc2)COC4)cn1` (stereo not shown) [T.18], the IC50 under setting [2] lay within 1 to 10 µM.
Consider `c1ccc(C2COCc3nc4ccc(-c5cnc6nccnc6c5)cc4n32)cc1` (stereo not shown) [T.19], for which, under setting [2], the IC50 lay in the range of 10 to 100 µM.
Regarding `CN1CCN(c2ccc(-c3ccc4nc5n(c4c3)C(c3ccccc3)COC5)cn2)CC1` (stereo not shown) [T.20], the IC50 under setting [2] is 1 to 10 µM.
Take `c1ccc(C2COCc3nc4ccc(-c5cnc(-n6cccn6)cn5)cc4n32)cc1` (stereo not shown) [T.21]: under setting [2], the IC50 was in the range of 1 to 10 µM.
Same read-out and setting: the figure for `COc1ncc(-c2ccc3nc4n(c3c2)C(c2ccccc2)COC4)cn1` (stereo not shown) [T.22] is 1 to 10 µM; for `c1ccc(C2COCc3nc4ccc(-c5cnc(-n6cccn6)nc5)cc4n32)cc1` (stereo not shown) [T.23] it is 1 to 10 µM; for `c1ccc(C2COCc3nc4ccc(-c5cnc(NC6CC6)nc5)cc4n32)cc1` (stereo not shown) [T.24] it is 1 to 10 µM.
Turning to `c1ccc(C2COCc3nc4ccc(-c5ccc(N6CCOCC6)nc5)cc4n32)cc1` (stereo not shown) [T.25], the IC50 under setting [2] is less than 1 µM.
With `c1ccc(C2COCc3nc4ccc(-c5cncnc5)cc4n32)cc1` (stereo not shown) [T.26], the IC50 under setting [2] was 10 to 100 µM.
On the same count and under the same terms, under `c1ccc(C2COCc3nc4ccc(-c5ccc(NCCN6CCOCC6)nc5)cc4n32)cc1` (stereo not shown) [T.28] stands 10 to 100 µM; under `c1ccc(C2COCc3nc4ccc(-c5cnc6ccoc6c5)cc4n32)cc1` (stereo not shown) [T.29], 1 to 10 µM; under `Cc1cc(-c2ccc3nc4n(c3c2)C(c2ccccc2)COC4)cnc1OC(C)C` (stereo not shown) [T.30], 1 to 10 µM.
On the same count and under the same terms, the figure for `Cc1ncc(-c2ccc3nc4n(c3c2)C(c2ccccc2)COC4)cn1` (stereo not shown) [T.31] is 1 to 10 µM.
Same read-out and setting: under `Cn1cnc2cc(-c3ccc4nc5n(c4c3)C(c3ccccc3)COC5)cnc21` (stereo not shown) [T.32] stands 10 to 100 µM; under `FC(F)(F)c1ccc(-c2ccc3nc4n(c3c2)C(c2ccccc2)COC4)cn1` (stereo not shown) [T.33], 1 to 10 µM; under `Cc1cc(-c2ccc3nc4n(c3c2)C(c2ccccc2)COC4)cnc1N1CCN(C)CC1` (stereo not shown) [T.34], 1 to 10 µM.
As to `CC(C)(O)c1ncc(-c2ccc3nc4n(c3c2)C(c2ccccc2)COC4)cn1` (stereo not shown) [T.35], the 50% inhibitory concentration (IC50) under setting [2] is less than 1 µM.
Still for that read-out and setting: under `Fc1ccc(F)c(C2COCc3nc4ccc(-c5cnc(N6CCOCC6)nc5)cc4n32)c1` (stereo not shown) [U.1] stands less than 1 µM; under `Fc1cccc(C2COCc3nc4ccc(-c5cnc(N6CCOCC6)nc5)cc4n32)c1` (stereo not shown) [U.2, 4-(3-Fluorophenyl)-7-(2-morpholinopyrimidin-5-yl)-3,4-dihydro-1H-benzo[4,5]imidazo[2,1-c][1,4]oxazine], 1 to 10 µM.
For the compound `O=C1NCC2CN(c3ncc(-c4ccc5nc6n(c5c4)C(c4cccc(F)c4)COC6)cn3)CCN12` (stereo not shown) [V.1], the half-inhibitory concentration (IC50) under setting [2] is less than 1 µM.
Same read-out and setting: under `O=C1NCC2CN(c3ncc(-c4ccc5nc6n(c5c4)C(c4ccccc4Cl)COC6)cn3)CCN12` (stereo not shown) [V.2] stands less than 1 µM.
For the compound `O=C1NCC2CN(c3ncc(-c4ccc5nc6n(c5c4)C4(CCc5ccccc54)COC6)cn3)CCN12` (stereo not shown) [V.3], the half-maximal inhibitory concentration (IC50) under setting [2] was less than 1 µM.
The same measure, in the same setting: under `OC1CCN(c2ncc(-c3ccc4nc5n(c4c3)[C@@H](c3ccccc3)COC5)cn2)CC1(F)F` (stereo partly shown) [W.1] stands less than 1 µM; under `OC1CC2(CCN(c3ncc(-c4ccc5nc6n(c5c4)[C@@H](c4ccccc4)COC6)cn3)CC2)C1` [W.2], less than 1 µM; under `O=S1(=O)CCN(c2ncc(-c3ccc4nc5n(c4c3)[C@@H](c3ccccc3)COC5)cn2)CC1` [W.3], less than 1 µM.
Turning to `OC1CCN(c2ncc(-c3ccc4nc5n(c4c3)C(c3cccc(F)c3)COC5)cn2)CC1(F)F` (stereo not shown) [X.1], the IC50 under setting [2] was less than 1 µM.
The same measure, in the same setting: under `OC1CC2(CCN(c3ncc(-c4ccc5nc6n(c5c4)C(c4cccc(F)c4)COC6)cn3)CC2)C1` (stereo not shown) [X.2] stands less than 1 µM; under `Fc1cccc(C2COCc3nc4ccc(-c5cnc(N6CCCOCC6)nc5)cc4n32)c1` (stereo not shown) [X.3], less than 1 µM; under `c1ccc([C@H]2CCCc3nc4ccc(-c5cnc(N6CCOCC6)nc5)cc4n32)cc1` [Y.1], less than 1 µM.
As for `CC(C)(O)c1ncc(-c2ccc3nc4n(c3c2)[C@@H](c2ccccc2)CCC4)cn1` [Y.2], the IC50 under setting [2] is less than 1 µM.
On to `CC(C)(O)c1ncc(-c2ccc3nc4n(c3c2)[C@H](c2ccccc2)CCC4)cn1` [Y.3], for which, under setting [2], the IC50 was 1 to 10 µM.
Regarding `CC(C)(O)c1ncc(-c2ccc3nc4n(c3c2)[C@H](c2ccccc2)CC4)cn1` [Y.4], the concentration for half-maximal inhibition (IC50) under setting [2] was in the range of 10 to 100 µM.
On the same count and under the same terms, the figure for `COc1ccccc1[C@@H]1CCCc2nc3ccc(-c4cnc(C(C)(C)O)nc4)cn3c21` [Y.5] is 1 to 10 µM.
As to `COc1ccccc1[C@H]1CCCc2nc3ccc(-c4cnc(C(C)(C)O)nc4)cn3c21` [Y.6], the IC50 under setting [2] was less than 1 µM.
The same measure, in the same setting: under `Fc1cccc([C@H]2COCc3nc4ccc(-c5cnc(N6CCOCC6)nc5)cc4n32)c1` [Y.7] stands less than 1 µM.
The same measure, in the same setting: the figure for `Cc1ccc(C)c([C@H]2CCc3nc4ccc(-c5cnc(C(C)(C)O)nc5)cc4n32)c1` [Y.8] is less than 1 µM.
On the same count and under the same terms, under `Cc1ccc(C)c([C@@H]2CCc3nc4ccc(-c5cnc(C(C)(C)O)nc5)cc4n32)c1` [Y.9] stands 1 to 10 µM; under `c1ccc([C@H]2CCc3nc4ccc(-c5cnc(N6CCOCC6)nc5)nc4n32)cc1` [Y.10], less than 1 µM; under `OC1CCN(c2ncc(-c3ccc4nc5n(c4n3)[C@@H](c3ccccc3)CC5)cn2)CC1` [Y.11], less than 1 µM.
`CC(C)(O)c1ncc(-c2ccc3nc4n(c3n2)[C@@]2(COC4)COc3ccccc32)cn1` [Y.13]: the IC50 under setting [2] was less than 1 µM.
Consider `CC(C)(O)c1ncc(-c2ccc3nc4n(c3n2)[C@]2(CCOc3ccccc32)COC4)cn1` [Y.14], for which, under setting [2], the half-inhibitory concentration (IC50) was less than 1 µM.
Same read-out and setting: the figure for `CC(C)(O)c1ncc(-c2ccc3nc4n(c3n2)[C@@]2(CCOc3ccccc32)COC4)cn1` [Y.15] is 1 to 10 µM; for `COc1ccccc1[C@H]1COCc2nc3ccc(-c4cnc(C(C)(C)O)nc4)cc3n21` [Z.1] it is less than 1 µM.
With `CC(C)(O)c1ncc(-c2ccc3nc4n(c3c2)C(c2c(Cl)cccc2Cl)COC4)cn1` (stereo not shown) [Z.2], the IC50 under setting [2] is less than 1 µM.
